{"source": "patent US20160015817A1", "about": "“METHODS OF TREATMENT OF PEDIATRIC SOLID TUMOR” (priority 2013, published 2016)", "key": {"phospho-histone H3 [1]": {"tested_on": "phospho-histone H3", "assay": "Immunohistochemistry of SK-N-BE(2) xenografts, mitotic marker", "format": "in vivo, mice", "details": "different dosages of Abraxane; Taxol 20 mg/kg/weekly; end of study"}, "RD xenograft": {"tested_on": "RD xenograft", "assay": "RD rhabdomyosarcoma xenograft model", "format": "in vivo, mice", "details": "Taxol 30 mg/kg weekly, Abraxane 50 mg/kg weekly", "description": "Control mice received saline.\nTumor growth was assessed in RD xenograft model with paclitaxel/Abraxane treatment. In Abraxane treatment group, tumor-bearing mice received Abraxane (50 mg/kg, weekly) treatment. In paclitaxel treatment group, since tumor sizes are reaching the endpoint after 2-week paclitaxel treatment in paclitaxel group, those mice were randomized into two groups with 5 animals in each group on day 15: one group of animals continued receiving 30 mg/kg of paclitaxel and the other group received 50 mg/kg of Abraxane instead."}, "phospho-histone H3 [2]": {"tested_on": "phospho-histone H3", "assay": "Immunohistochemistry of RH4 xenografts, mitotic marker", "format": "in vivo, mice", "details": "48 hours after Abraxane 50 mg/kg iv or Taxol 30 mg/kg iv", "source_text": "Similarly, RH4 xenografts were harvested and analyzed by IHC for phosphor-histone H3."}, "relapsed RH4 xenografts": {"tested_on": "relapsed RH4 xenografts", "assay": "Relapsed RH4 xenograft model, re-treatment", "format": "in vivo, mice", "details": "re-treatment on day 52, 59 and 66, Taxol 30 mg/kg or Abraxane 50 mg/kg", "source_text": "Tumor growth was monitored."}, "RH4 xenograft": {"tested_on": "RH4 xenograft", "assay": "RH4 rhabdomyosarcoma subcutaneous xenograft model", "details": "for local relapse-free interval: RH4 model", "method": "Briefly, tumor cells were washed three times with HBSS before injection. Mice were given a subcutaneous injection of 1×10^6 tumor cells. Tumor growth was measured weekly in two dimensions using a digital caliper, and tumor volume was calculated as width^2×length×0.5. Once the tumor diameter reached 0.5 cm, mice were randomized into treatment groups with 10 animals in each group. […] Taxol® was administered i.v. at 20 or 30 mg/kg weekly. Control mice received saline. Tumor volume, mouse body weight and signs of animal distress were evaluated twice or three times a week for any potential drug toxicity. Animals were sacrificed once the tumor size reached 1.5 cm^3.\nTumor volume was measured and calculated as width^2×length×0.5. […] Drugs were given on day 52, 59 and 66 with the same schedule and dosage as above. Tumor growth was monitored."}, "cleaved caspase-3": {"tested_on": "cleaved caspase-3", "assay": "Immunohistochemistry of SK-N-BE(2) xenografts, apoptotic marker", "format": "in vivo, mice", "details": "different dosages of Abraxane; Taxol 20 mg/kg/weekly; end of study"}, "[3]": {"tested_on": "A673 Ewing's sarcoma cells", "assay": "A673 Ewing sarcoma subcutaneous xenograft", "format": "in vivo, mice", "details": "gemcitabine 100 mg/kg i.p. twice weekly with nab-paclitaxel", "description": "(§1) Briefly, 5×10^6143.98.2 osteosarcoma cells or A673 Ewing's sarcoma cells were suspended in 100 μl PBS and implanted subcutaneously with 33% Matrigel in 5-6 week-old female athymic nu/nu mice. Tumor volume was calculated using the formula L·W2·(π/6), where L=the longest tumor diameter and W=the widest tumor diameter perpendicular to L. When tumors reached 200-300 mm^3, animals were treated with either saline control, nab-paclitaxel 30 mg/kg intravenously on days 1-5 for a single course, gemcitabine 100 mg/kg intraperitoneally twice weekly until death, or the combination of nab-paclitaxel and gemcitabine. Mice were sacrificed once tumors reached 10% body weight (˜2500 mm^3).\n(§2) To perform statistical analysis, it was calculated that a sample of 10 mice per group would provide an 80% power to detect a difference in tumor size of 41%, Power was calculated at a significance level of 0.05 using a two-tailed, two sample Student's t-test assuming equal variance. GraphPad Prism 5 software was used to analyze survival by log-rank and tumor growth by two sample Student's t-test."}, "[4]": {"tested_on": "143.98.2 osteosarcoma cells", "format": "in vivo", "details": "nab-paclitaxel 30 mg/kg i.v. days 1-5; gemcitabine 100 mg/kg i.p. twice weekly; p=0.031 combination vs nab-paclitaxel alone", "description": "as §1, §2"}, "[5]": {"details": "dosing on days 1, 8 and 15, Taxol 30 mg/kg, Abraxane 50 mg/kg"}}, "note": "“Also recorded” adds a separate entry of the source.", "data": [{"smiles": "CC(=O)O[C@H]1C(=O)[C@@]2(C)[C@H]([C@H](OC(=O)c3ccccc3)[C@]3(O)C[C@H](OC(=O)[C@H](O)[C@@H](NC(=O)c4ccccc4)c4ccccc4)C(C)=C1C3(C)C)[C@]1(OC(C)=O)CO[C@@H]1C[C@@H]2O", "note": "[Taxol®, paclitaxel]", "values": [{"measurement": "phospho-histone H3 positive cells", "setting": "phospho-histone H3 [1]", "value": "only slightly increased phospho-histone H3 positive cells"}, {"measurement": "tumor growth (tumor volume)", "setting": "RD xenograft", "value": "slow the growth of RD tumors, but those tumors grew progressively with no signs of tumor regression; also recorded: significantly inhibited tumor growth"}, {"measurement": "phospho-histone H3 positive cells", "setting": "phospho-histone H3 [2]", "value": "Significant increased population of phospho-histone H3 positive cells"}, {"measurement": "response of tumors relapsed after Taxol (paclitaxel) treatment", "setting": "relapsed RH4 xenografts", "value": "drug resistant against Taxol®"}, {"measurement": "response of tumors relapsed after Taxol (paclitaxel) treatment", "setting": "relapsed RH4 xenografts; listed as paclitaxel", "value": "paclitaxel-resistant"}, {"measurement": "animals that developed relapsed tumors", "setting": "RH4 xenograft; 7 animals per group", "value": "all Taxol® treated animals demonstrated tumor relapse"}, {"measurement": "tumor growth (tumor volume)", "setting": "RH4 xenograft; Abraxane 50 mg/kg, Taxol 30 mg/kg i.v. weekly", "value": "significantly inhibited RH4 tumor growth, with tumor regression observed after the 2nd dosage on day 8"}, {"measurement": "local relapse-free interval", "setting": "RH4 xenograft", "value": "13.6 ± 2.07", "unit": "days"}, {"measurement": "local relapse-free interval", "setting": "RH4 xenograft; listed as paclitaxel", "value": 34, "unit": "days"}, {"measurement": "mice that died", "setting": "RH4 xenograft; Taxol 30 mg/kg group, Day 10", "value": "1 out of 7"}, {"measurement": "complete regression observed after day", "setting": "RH4 xenograft; [5]", "value": "> 31", "unit": "days"}, {"measurement": "time to tumor relapse after complete regression", "setting": "RH4 xenograft; [5]", "value": "11 to 15", "unit": "days"}, {"measurement": "apoptotic cell population (cleaved caspase-3 staining)", "setting": "cleaved caspase-3", "value": "only slightly increased apoptosis in tumors"}]}, {"smiles": "Nc1ccn([C@@H]2O[C@H](CO)[C@@H](O)C2(F)F)c(=O)n1", "note": "[gemcitabine]", "values": [{"measurement": "additive benefit of gemcitabine added to nab-paclitaxel", "setting": "[3]", "value": "no additive benefit"}, {"measurement": "tumor growth", "setting": "[4]", "value": "appeared additive"}]}]}
